From patent US20190308933A1, “PHENYLAMIDINES AND THE USE THEREOF AS FUNGICIDES” (priority 2016, published 2019)
Read-outs that look alike come from different tables or passages of the source.

Columns and labels:
Phakopsora pachyrhizi = assay: In vivo preventive test on Phakopsora (soybeans); design: species or system Phakopsora pachyrhizi (soybean rust) on soybeans; details: 168 h, young soybean plants sprayed, 10 ppm of active ingredient, evaluated 7 days after inoculation, 0% = untreated control, 100% = no disease, read-out: efficacy
Description: Example: In Vivo Preventive Test on Phakopsora Test (Soybeans)
To produce a suitable preparation of active compound, 1 part by weight of active compound is mixed with the stated amounts of solvent and emulsifier, and the concentrate is diluted with water to the desired concentration.
To test for preventive activity, young plants are sprayed with the preparation of active compound at the stated rate of application. After the spray coating has dried on, the plants are inoculated with an aqueous spore suspension of the causal agent of soybean rust (Phakopsora pachyrhizi) and stay for 24 h without light in an incubation cabinet at approximately 24° C. and a relative atmospheric humidity of 95%.
The plants remain in the incubation cabinet at approximately 24° C. and a relative atmospheric humidity of approximately 80% and a day/night interval of 12 h.
The test is evaluated 7 days after the inoculation. 0% means an efficacy which corresponds to that of the untreated control, while an efficacy of 100% means that no disease is observed.

[1] = Log P measurement by HPLC on reversed phase columns (EEC directive 79/831 Annex V.A8); format: physicochemical; details: reversed phase HPLC column, LC-UV
Description: [table] Measurement of Log P values was performed according to EEC directive 79/831 Annex V.A8 by HPLC (High Performance Liquid Chromatography) on reversed phase columns with the following methods: If more than one Log P value is available within the same method, all the values are given and separated by “+”. […] Lambda-max-values were determined using UV-spectra from 200 nm to 400 nm and the peak values of the chromatographic signals.

[2] = acidic range, 0.1% formic acid in water and acetonitrile as eluent (linear gradient 10% to 95% acetonitrile), read-out: LogP [a]

SMILES | pest or weed control at 10 ppm (Phakopsora pachyrhizi) [%] | chromatographic logP [1, 2] | chromatographic logP ([1]; neutral range, 0.001 molar ammonium acetate solution in water and acetonitrile as eluent (linear gradient 10% to 95% acetonitrile), read-out: LogP [b])
CCN(C)C=Nc1cc(C)c(Cc2ccccc2F)cc1Cl [Example 2, N′-[2-chloro-4-[(2-fluorophenyl)methyl]-5-methylphenyl]-N-ethyl-N-methylmethanimidamide] | 90 to 100 | 1.52 | 4.5
CCN(C)C=Nc1cc(C)c(C2(c3ccccc3)CC2(F)F)cc1C (centres unmarked) [Example 14, N′-[4-(2,2-difluoro-1-phenylcyclopropyl)-2,5-dimethylphenyl]-N-ethyl-N-methylmethanimidamide] | 90 to 100 | 1.63 | 
